Experimental findings from US20230219951A1, “PYRIDINE-PYRIMIDINE DERIVATIVE, PREPARATION METHOD THEREFOR AND PHARMACEUTICAL USE THEREOF” (Jiangsu Hengrui Pharmaceuticals Co., Ltd., priority 2020, published 2023) are described below.

For assay [1], the target named is T1, interaction between the KRAS protein subtype G12D and the SOS1 protein (Homo sapiens, UniProt Q07889).
T1 construct: GST-TEV-SOS1(564-1049) (Viva Biotech, SOS1-191010); purchased SOS1: Viva Biotech; KRAS: Shanghai Panchao Biotechnology Co., Ltd. SOS1-191010
T1 sequence (Q07889 564-1049): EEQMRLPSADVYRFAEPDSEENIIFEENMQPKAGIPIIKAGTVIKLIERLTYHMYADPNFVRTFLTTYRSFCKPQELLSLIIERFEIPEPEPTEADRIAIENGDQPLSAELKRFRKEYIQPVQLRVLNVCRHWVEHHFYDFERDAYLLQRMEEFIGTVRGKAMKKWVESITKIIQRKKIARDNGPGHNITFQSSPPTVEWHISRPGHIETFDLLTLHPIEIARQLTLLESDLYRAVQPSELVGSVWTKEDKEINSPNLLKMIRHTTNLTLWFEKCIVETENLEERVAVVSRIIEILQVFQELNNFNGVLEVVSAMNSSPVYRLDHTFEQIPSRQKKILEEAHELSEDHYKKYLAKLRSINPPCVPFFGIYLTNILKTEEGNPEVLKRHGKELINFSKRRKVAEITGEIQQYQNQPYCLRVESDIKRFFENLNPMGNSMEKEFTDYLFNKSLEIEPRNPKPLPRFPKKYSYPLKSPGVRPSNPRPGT
Kind of assay: Inhibition of the interaction between KRAS G12D and SOS1 protein (AlphaLISA/AlphaScreen). It counts as binding. The following applies: KRAS G12D + GST-TEV-SOS1(564-1049) + GDP. As to the method: (§1) Test Example 1: Inhibitory Ability of Compounds of the Present Disclosure to the Interaction Between the KRAS Protein Subtype G12D or G12V and the SOS1 Protein. The inhibitory ability of the compounds of the present disclosure to the interaction between the KRAS protein subtype G12D or G12V and the SOS1 protein was determined by the following method. The experimental method was briefly described as follows:
(§2) 1. The experimental buffer was prepared prior to the start of the experiment: 1×PBS+0.1% BSA+0.05% tween 20.
(§3) 2. KRAS G12D and KRAS-G12V proteins were labeled with biotin using the biotin labeling kit.
(§4) 1. Firstly, the biotin-labeled KRAS G12D or KRAS G12V protein was mixed and incubated with the SOS1 protein and GDP for later use.
(§5) 2. AlphaLISA glutathione acceptor beads and AlphaScreen streptavidin donor beads were mixed at a ratio of 1:1 to make the concentration of 40 μg/mL for later use.
(§6) 3. The compound was formulated with the experimental buffer to obtain 10 concentration points by 5-fold gradient dilution from an initial concentration of 40 μM.
(§7) 4. In the 384-well microplate, 10 μL of a mixture of KRAS G12D or KRAS G12V protein and SOS1 and GDP and 5 μL of the diluted compound were added to each well and incubated at room temperature for 30 min away from the light.
(§8) 5. Then, 5 μL of a mixture of AlphaLISA glutathione acceptor beads and AlphaScreen streptavidin donor beads was added to each well and incubated at room temperature for 60 min away from the light.
(§9) 6. The fluorescence values were read on a multi-mode microplate reader.
(§10) 7. IC50 values of the compounds were calculated using Graphpad Prism.
For orientation: Alpha assays give light when donor and acceptor beads are brought close together.

In assay [2] the target is T2, interaction between the KRAS protein subtype G12V and the SOS1 protein (Homo sapiens, UniProt Q07889).
T2 construct: GST-TEV-SOS1(564-1049) (Viva Biotech, SOS1-191010); purchased SOS1: Viva Biotech; KRAS: Shanghai Panchao Biotechnology Co., Ltd. SOS1-191010
T2 sequence (Q07889 564-1049): T1 sequence (Q07889 564-1049)
Kind of assay: Inhibition of the interaction between KRAS G12V and SOS1 protein (AlphaLISA/AlphaScreen). In kind it is binding. The following applies: KRAS G12V + GST-TEV-SOS1(564-1049) + GDP. As to the method: as §1, §2, §3, §4, §5, §6, §7, §8, §9, §10

A further assay concerns H358 cells. Kind of assay: Inhibition of proliferation of H358 cells (CellTiter-Glo 3D). In kind it is cell-based. The following applies: Homo sapiens, NCI-H358, low adsorption plate, 120 h. As to the method: This example is intended to evaluate the inhibition effect of the compounds of the present disclosure on the KRAS target (containing the G12C mutation) by testing the inhibition effect of the compounds of the present disclosure on the proliferation of H358 cells.
H358 cells (ATCC, CRL-5807) were cultured in a complete medium, namely RPMI1640 medium (Hyclone, SH30809.01) containing 10% fetal bovine serum (Corning, 35-076-CV). On the first day of the experiment, the H358 cells were seeded into a 96-well low adsorption plate (Coming, CLS7007-24EA) at a density of 1500 cells/well with a complete medium to form 90 μL of cell suspension per well. The plate was centrifuged at 2000 rpm for 5 min at room temperature and then incubated overnight in a cell incubator at 37° C. with 5% CO2. The next day, 10 μL of test compound diluted in a gradient prepared with the complete medium was added to each well. The final concentrations of the compound were 9 concentration points obtained by 5-fold gradient dilution from 10 μM. A blank control containing 0.1% DMSO was set. The plate was incubated in a cell incubator at 37° C. with 5% CO2 for 120 h. On the seventh day, the 96-well cell culture plate was taken out and 50 μL of CellTiter-Glo® 3D reagent (Promega, G9682) was added into each well. The plate was shaken at room temperature for 25 min, pipetted and mixed well, from which 50 μL of the mixture was transferred into a white impermeable 96-well plate (PE, 6005290). The luminescence signal values were read using a multi-mode microplate reader (PerkinElmer, VICTOR 3).
IC50 values for the inhibitory activity of the compounds were calculated using Graphpad Prism software.
For orientation: ATP-based viability assays read luminescence as a measure of living cells.

The subject of assay [3] is ERK phosphorylation of H358 cells. As to the kind of experiment: Inhibition of ERK phosphorylation of H358 cells (HTRF pERK/total ERK). In kind it is cell-based. The following applies: Homo sapiens, NCI-H358, 1 h incubation, pERK/total ERK ratio. The procedure: This experiment is intended to evaluate the inhibition effect of the compounds of the present disclosure on the KRAS target (containing the G12C mutation) according to IC50 by determining the inhibition effect of the compounds on ERK phosphorylation of the cells.
H358 cells (ATCC, CRL-5807) were cultured in RPMI1640 (Hyclone, SH30809.01) complete medium containing 10% fetal bovine serum. On the first day of the experiment, the H358 cells were seeded into a 96-well plate at a density of 25,000 cells/well with a complete medium to form 190 μL of cell suspension per well. The plate was incubated overnight in a cell incubator at 37° C. with 5% CO2. The next day, 10 μL of test compound diluted in a gradient prepared with the complete medium was added to each well. The final concentrations of the compound were 9 concentration points obtained by 5-fold gradient dilution from 10 μM. A blank control containing 0.1% DMSO was set. The plate was incubated in a cell incubator at 37° C. with 5% CO2 for 1 h. 1 h later, the 96-well cell culture plate was taken out, the medium was removed by pipetting, 200 μL PBS (Shanghai BasalMedia Technologies Co., Ltd., B320) was added to each well, and the cells were washed once. PBS was removed by pipetting, 50 μL of lysis buffer (Cisbio, 64KL1FDF) containing a blocking reagent (Cisbio, 64KB1AAC) was added to each well, and the plate was shaken on a shaker at room temperature for 40 min for lysis. After lysis, the lysate was pipetted and mixed well, 16 μL of lysate was transferred from each well to each of two HTRF 96-well assay plates (Cisbio, 66PL96100), and then 4 μL of premixed phospho-ERK1/2 antibody solution (Cisbio, 64AERPEG) or 4 μL of premixed total-ERK1/2 antibody solution (Cisbio, 64NRKPEG) was added to each of the two plates. The microplate was sealed with a sealing membrane, centrifuged for 1 min in a microplate centrifuge, and incubated overnight at room temperature away from the light. On the third day, the fluorescence values at an excitation wavelength of 337 nm and at emission wavelengths of 665 nm and 620 nm were read using a PHERAstar multi-mode microplate reader (BMG Labtech, S/N 471-0361).
IC50 values for inhibitory activity of the compounds were calculated using Graphpad Prism software based on compound concentrations and pERK/total ERK ratio.
A general note: Time-resolved FRET reads energy transfer from a long-lived donor to a nearby acceptor.

Regarding `Cc1nc(N[C@H](C)c2cccc(C(F)F)c2F)c2cc(C3(O)CCN(C(=O)CF)CC3)c(=O)[nH]c2n1` (racemic) [Example 22, rac-(R)-4-((1-(3-(difluoromethyl)-2-fluorophenyl)ethyl)amino)-6-(1-(2-fluoroacetyl)-4-hydroxypiperidin-4-yl)-2-methylpyrido[2,3-d]pyrimidin-7(8H)-one], the 50% inhibitory concentration (IC50) – broadly, the concentration needed to halve the response being measured – in assay [1] was determined as 14 nM; in assay [2], 27 nM.

In the case of `CC(=O)N1CC(Oc2cc3c(N[C@H](C)c4cccc(C(F)F)c4F)nc(C)nc3[nH]c2=O)C1` (racemic) [Example 26, rac-(R)-6-((1-acetylazetidin-3-yl)oxy)-4-((1-(3-(difluoromethyl)-2-fluorophenyl)ethyl)amino)-2-methylpyrido[2,3-d]pyrimidin-7(8H)-one], the IC50 in assay [1] is 44 nM; with H358 cells it was 346 nM; in assay [2], 65 nM.

For the molecule `Cc1nc(N[C@H](C)c2cc(N)cc(C(F)(F)F)c2)c2cc(C3=CCOCC3)c(=O)[nH]c2n1` [Example 3, (R)-4-((1-(3-amino-5-(trifluoromethyl)phenyl)ethyl)amino)-6-(3,6-dihydro-2H-pyran-4-yl)-2-methylpyrido[2,3-d]pyrimidin-7(8H)-one], the IC50 in assay [3] is 55 nM.

For `Cc1nc(N[C@H](C)c2cccc(C(F)F)c2F)c2cc(C3=CCOCC3)c(=O)[nH]c2n1` [Example 5, (R)-4-((1-(3-(difluoromethyl)-2-fluorophenyl)ethyl)amino)-6-(3,6-dihydro-2H-pyran-4-yl)-2-methylpyrido[2,3-d]pyrimidin-7(8H)-one], the IC50 was found to be 42 nM in assay [1], 461 nM in the assay with H358 cells and 79 nM in assay [2].

On to `Cc1nc(N[C@H](C)c2cccc(C(F)F)c2F)c2cc(C3CCOCC3)c(=O)[nH]c2n1` [Example 6, (R)-4-((1-(3-(difluoromethyl)-2-fluorophenyl)ethyl)amino)-2-methyl-6-(tetrahydro-2H-pyran-4-yl)pyrido[2,3-d]pyrimidin-7(8H)-one], for which the values for the IC50 (in assay [1]; with H358 cells; in assay [2]) were 30 nM, 345 nM and 56 nM, respectively.

For `Cc1nc(N[C@H](C)c2cccc(C(F)(F)CO)c2F)c2cc(OC3CCOC3)c(=O)[nH]c2n1` (stereo partly drawn) [Example 9, 4-(((R)-1-(3-(1,1-difluoro-2-hydroxyethyl)-2-fluorophenyl)ethyl)amino)-2-methyl-6-(((R)-tetrahydrofuran-3-yl)oxy)pyrido[2,3-d]pyrimidin-7(8B)-one], the IC50 turned out to be 8 nM in assay [1], 106 nM in the assay on H358 cells and 41 nM in assay [2].

Take `Cc1nc(N[C@H](C)c2cccc(C(F)F)c2F)c2cc(O[C@H]3CCOC3)c(=O)[nH]c2n1` [Example 10, 4-(((R)-1-(3-(difluoromethyl)-2-fluorophenyl)ethyl)amino)-2-methyl-6-(((S)-tetrahydrofuran-3-yl)oxy)pyrido[2,3-d]pyrimidin-7(8H)-one]: the IC50 in assay [1] is 34 nM; in assay [2], 80 nM.

Regarding `Cc1nc(N[C@H](C)c2cccc(C(F)F)c2F)c2cc(C3=CCC(C(=O)N(C)C)CC3)c(=O)[nH]c2n1` (stereo partly drawn) [Example 13, 4-(4-(((R)-1-(3-(difluoromethyl)-2-fluorophenyl)ethyl)amino)-2-methyl-7-oxo-7,8-dihydropyrido[2,3-d]pyrimidin-6-yl)-N,N-dimethylcyclohex-3-ene-1-carboxamide], the IC50 in assay [1] came out at 21.5 nM; in the assay with H358 cells it was 137 nM; in assay [2] it was 79 nM.

`Cc1nc(N[C@H](C)c2cccc(C(F)F)c2F)c2cc(C3(O)CCOCC3)c(=O)[nH]c2n1` [Example 19, (R)-4-((1-(3-(difluoromethyl)-2-fluorophenyl)ethyl)amino)-6-(4-hydroxytetrahydro-2H-pyran-4-yl)-2-methylpyrido[2,3-d]pyrimidin-7(8H)-one]: the IC50 was 47 nM in assay [1] and 154 nM in assay [2].

For `Cc1nc(N[C@H](C)c2cccc(C(F)F)c2F)c2cc(OC3CCS(=O)(=O)CC3)c(=O)[nH]c2n1` [Example 23, (R)-4-((1-(3-(difluoromethyl)-2-fluorophenyl)ethyl)amino)-6-((1,1-dioxidotetrahydro-2H-thiopyran-4-yl)oxy)-2-methylpyrido[2,3-d]pyrimidin-7(8H)-one], the IC50 in assay [1] was 10 nM; in assay [2] it was 89 nM.

With `CC(=O)N1CC[C@H](Oc2cc3c(N[C@H](C)c4cccc(C(F)F)c4F)nc(C)nc3[nH]c2=O)C1` [Example 24, 6-(((S)-1-acetylpyrrolidin-3-yl)oxy)-4-(((R)-1-(3-(difluoromethyl)-2-fluorophenyl)ethyl)amino)-2-methylpyrido[2,3-d]pyrimidin-7(8H)-one], the IC50 stood at 49 nM in assay [1] and 133 nM in assay [2].

Take `CNC(=O)C1CCC(O)(c2cc3c(N[C@H](C)c4cccc(C(F)F)c4F)nc(C)nc3[nH]c2=O)CC1` (stereo partly drawn) [Example 29, (R)-4-(4-((1-(3-(difluoromethyl)-2-fluorophenyl)ethyl)amino)-2-methyl-7-oxo-7,8-dihydropyrido[2,3-d]pyrimidin-6-yl)-4-hydroxy-N-methylcyclohexane-1-carboxamide]: the IC50 in assay [1] came out at 91 nM; with H358 cells it was 545 nM; in assay [2], 101 nM.
